Results published in US11339203B2, “Antitumor peptide and use thereof” (TOAGOSEI CO., LTD., priority 2018, dated 2022).
Read-outs that look alike come from different tables or passages of the source. Where no end group is shown, it is not given here.

What was measured:
[1] = system: human kidney cancer cell line (CAKI2); type: cell-based; conditions: for Cell Viability (%): human, 48 h
Procedure: The antitumor activity of each sample peptide synthesized in above-mentioned Test Example 1 was evaluated targeted in human-derived cultured tumor cells. More specifically, a human kidney cancer cell line (CAKI2) that is currently commercially available was used for the test tumor cells. CAKI2 cells were cultured and adjusted to cell count of about 5×10^3 cells per single well of 96-well plate. The amount of medium at this time was made to be 100 μL per well. Next, the 96-well plate was arranged in a CO2 incubator and incubated for about 1 day (21 hours to 24 hours) under conditions of 37° C. and 5% CO2. Subsequently, peptide-containing test media were respectively prepared for each concentration so that the concentration of each sample peptide targeted for evaluation was 12.5 μM and 25 μM followed by supplying to the wells in which the cells targeted for evaluation were cultured (namely, the wells following the above-mentioned incubation) so that the amount of media was 90 μL per well. The 96-well plate was then returned to CO2 incubator followed by incubating for 48 hours under conditions of 37° C. and 5% CO2. The number of wells (n) at each concentration in each peptide addition test group was set to 3. Thus, the values of the results indicated in the following table are the average values of the results respectively obtained for 3 test wells. Cell viability (%) was determined in the manner described below. Following completion of incubation for 48 hours as described above, the medium in each well was replaced with 100 μL of fresh medium not containing peptide followed by further adding a reagent for measuring cell proliferation in the form of “Cell Counting Kit-8” (Dojindo Laboratories) containing “water-soluble tetrazolium salt (WST-8)” as a coloring reagent at 10 μL per well. Subsequently, the 96-well plate was again returned to CO2 incubator and incubated for 1.5 hours to 2 hours under conditions of 37° C. and 5% CO2. Following completion of incubation, cell viability (%) was evaluated using a colorimetric method consisting of recovering the cell culture liquid containing the above-mentioned reagent together with measuring absorbance at wavelength of 450 nm based on reduction of tetrazolium salt (value corrected for absorbance at a wavelength of 650 nm: A450 to A650). More specifically, the cell viability (%) of each test cell line was calculated from the measured absorbance as a relative value based on cell viability of 100% for the measured value (measured absorbance) of the comparison test group that underwent incubation for 48 hours as described above in only medium not containing peptide. McCoy's 5A medium (Gibco) containing 2 mM L-glutamine, 3,000 mg/L of glucose, 100 units/mL of penicillin, 100 μg/mL of streptomycin and 10% fetal bovine serum (FBS).

[2] = system: human melanoma cell line (A2058); type: cell-based; conditions: 48 h
Procedure: CAKI2 cells were cultured and adjusted to cell count of about 5×10^3 cells per single well of 96-well plate. The amount of medium at this time was made to be 100 μL per well. Next, the 96-well plate was arranged in a CO2 incubator and incubated for about 1 day (21 hours to 24 hours) under conditions of 37° C. and 5% CO2. […] Cell viability (%) was determined in the manner described below. […] Following completion of incubation, cell viability (%) was evaluated using a colorimetric method consisting of recovering the cell culture liquid containing the above-mentioned reagent together with measuring absorbance at wavelength of 450 nm based on reduction of tetrazolium salt (value corrected for absorbance at a wavelength of 650 nm: A450 to A650). More specifically, the cell viability (%) of each test cell line was calculated from the measured absorbance as a relative value based on cell viability of 100% for the measured value (measured absorbance) of the comparison test group that underwent incubation for 48 hours as described above in only medium not containing peptide. Antitumor activity was evaluated for Sample 2 in above-mentioned Test Example 1 targeted at multiple types of human-derived cultured tumor cells. […]

FIGNLALSDLLAGVAYTANLLLKKRTLRKNDRKKR-NH2 [Sample 2]
antitumor activity (tumor cell proliferation inhibitory activity) ([1]; CAKI2 cells, result in words, among Samples 1 to 7): superior antitumor activity | Cell Viability (%) ([1]; 12.5 μM): 9.2% | Cell Viability (%) ([1]; 25 μM): 0.4% | Cell Viability (%) ([2]; 12.5 μM): 6.5% | Cell Viability (%) ([2]; 25 μM): 0.2%
